Assays:
Experiment in all cases: relative viability (nuclei count vs DMSO), 5 days (fraction); higher = more cells survive
[1] = system: PC-14
Summary of the method: (§1)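 Relative viability was taken as the ratio of nuclei in treated wells to nuclei in vehicle wells. Lung cancer cell lines in 1536-well plates received compounds by pin tool one day after seeding, either one drug alone or a fixed anchor-drug dose plus five library-drug doses (not always all listed) in √10 steps. Nuclei were counted on 4× images after 5 days of treatment, and values are medians of duplicate plates.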

[2] = system: NCI-H2347
Summary of the method: as §1

[3] = system: NCI-H2126
Summary of the method: as §1

[4] = system: NCI-H2009
Summary of the method: as §1

[5] = system: LCLC-97TM1
Summary of the method: as §1

[6] = system: NCI-H1915
Summary of the method: as §1

[7] = system: NCI-H322M
Summary of the method: as §1

[8] = system: NCI-H647
Summary of the method: as §1

[9] = system: NCI-H727
Summary of the method: as §1

[10] = system: SK-LU-1
Summary of the method: as §1

[11] = system: HOP-62
Summary of the method: as §1

[12] = system: NCI-H1650
Summary of the method: as §1

[13] = system: EMC-BAC-2
Summary of the method: as §1

[14] = system: LXF-289
Summary of the method: as §1

[15] = system: NCI-H1993
Summary of the method: as §1

[16] = system: H3255
Summary of the method: as §1

[17] = system: EPLC-272H
Summary of the method: as §1

[18] = system: NCI-H2085
Summary of the method: as §1

[19] = system: SW 1573
Summary of the method: as §1

[20] = system: NCI-H2023
Summary of the method: as §1

O=C(O)c1ccc(-c2c[nH]c3ncc(-c4ccccc4)cc23)cc1C1CCCC1 + CC1(C)CCC(c2ccc(Cl)cc2)=C(CN2CCN(c3ccc(C(=O)NS(=O)(=O)c4ccc(N[C@H](CCN5CCOCC5)CSc5ccccc5)c(S(=O)(=O)C(F)(F)F)c4)cc3)CC2)C1 [Navitoclax] (partner 0.5 µM)
relative viability ([1]; first compound 0.04 µM): 1.01
relative viability ([1]; first compound 0.1265 µM): 1.1
relative viability ([1]; first compound 0.4 µM): 1.03
relative viability ([1]; first compound 1.265 µM): 0.814
relative viability ([2]; first compound 0.04 µM): 0.778
relative viability ([2]; first compound 0.1265 µM): 0.821
relative viability ([2]; first compound 0.4 µM): 0.761
relative viability ([2]; first compound 1.265 µM): 0.612
relative viability ([3]; first compound 0.04 µM): 0.892
relative viability ([3]; first compound 0.1265 µM): 0.875
relative viability ([3]; first compound 0.4 µM): 0.745
relative viability ([3]; first compound 1.265 µM): 0.685
relative viability ([4]; first compound 0.04 µM): 1.15
relative viability ([4]; first compound 0.1265 µM): 1.1
relative viability ([4]; first compound 0.4 µM): 1.15
relative viability ([4]; first compound 1.265 µM): 0.969
relative viability ([5]; first compound 0.04 µM): 0.463
relative viability ([5]; first compound 0.1265 µM): 0.303
relative viability ([5]; first compound 0.4 µM): 0.503
relative viability ([5]; first compound 1.265 µM): 0.396
relative viability ([6]; first compound 0.04 µM): 0.769
relative viability ([6]; first compound 0.1265 µM): 0.77
relative viability ([6]; first compound 0.4 µM): 0.609
relative viability ([6]; first compound 1.265 µM): 0.502
relative viability ([7]; first compound 0.04 µM): 1.19
relative viability ([7]; first compound 0.1265 µM): 1.37
relative viability ([7]; first compound 0.4 µM): 1.34
relative viability ([7]; first compound 1.265 µM): 1.03
relative viability ([8]; first compound 0.04 µM): 1.1
relative viability ([8]; first compound 0.1265 µM): 1.13
relative viability ([8]; first compound 0.4 µM): 1.04
relative viability ([8]; first compound 1.265 µM): 0.713
relative viability ([9]; first compound 0.04 µM): 0.414
relative viability ([9]; first compound 0.1265 µM): 0.422
relative viability ([9]; first compound 0.4 µM): 0.476
relative viability ([9]; first compound 1.265 µM): 0.515
relative viability ([10]; first compound 0.04 µM): 0.982
relative viability ([10]; first compound 0.1265 µM): 1.01
relative viability ([10]; first compound 0.4 µM): 0.697
relative viability ([10]; first compound 1.265 µM): 0.482
relative viability ([11]; first compound 0.04 µM): 1.05
relative viability ([11]; first compound 0.1265 µM): 1.13
relative viability ([11]; first compound 0.4 µM): 1.05
relative viability ([11]; first compound 1.265 µM): 0.76
relative viability ([12]; first compound 0.04 µM): 1.17
relative viability ([12]; first compound 0.1265 µM): 1.14
relative viability ([12]; first compound 0.4 µM): 0.774
relative viability ([12]; first compound 1.265 µM): 0.914
relative viability ([13]; first compound 0.04 µM): 1.18
relative viability ([13]; first compound 0.1265 µM): 1.23
relative viability ([13]; first compound 0.4 µM): 1.16
relative viability ([13]; first compound 1.265 µM): 1.22
relative viability ([14]; first compound 0.04 µM): 0.936
relative viability ([14]; first compound 0.1265 µM): 0.883
relative viability ([14]; first compound 0.4 µM): 0.658
relative viability ([14]; first compound 1.265 µM): 0.48
relative viability ([15]; first compound 0.04 µM): 0.955
relative viability ([15]; first compound 0.4 µM): 0.986
relative viability ([15]; first compound 1.265 µM): 0.795
relative viability ([16]; first compound 0.04 µM): 0.572
relative viability ([16]; first compound 0.1265 µM): 0.642
relative viability ([16]; first compound 0.4 µM): 0.684
relative viability ([16]; first compound 1.265 µM): 0.463
relative viability ([17]; first compound 0.04 µM): 1.01
relative viability ([17]; first compound 0.1265 µM): 1.16
relative viability ([17]; first compound 0.4 µM): 1.06
relative viability ([17]; first compound 1.265 µM): 0.811
relative viability ([18]; first compound 0.04 µM): 1.06
relative viability ([18]; first compound 0.1265 µM): 1.1
relative viability ([18]; first compound 0.4 µM): 1.04
relative viability ([18]; first compound 1.265 µM): 0.72
relative viability ([19]; first compound 0.04 µM): 1.02
relative viability ([19]; first compound 0.1265 µM): 1.22
relative viability ([19]; first compound 0.4 µM): 1.05
relative viability ([19]; first compound 1.265 µM): 0.619
relative viability ([20]; first compound 0.04 µM): 1.03
relative viability ([20]; first compound 0.1265 µM): 1.11
relative viability ([20]; first compound 0.4 µM): 0.987
relative viability ([20]; first compound 1.265 µM): 0.904

Source: the supplement of paper PMC10307832
